Data as given in US7148229B2, “Sulfonamide substituted xanthine derivatives” (Hoffman-La Roche Inc., priority 2003, dated 2006).

Molecular target: T1, recombinant human cytosolic PEPCK (GST-PEPCK) (Homo sapiens, UniProt P35558)
T1 construct: made in house; host or cells: E. coli
T1 sequence (P35558 1-622): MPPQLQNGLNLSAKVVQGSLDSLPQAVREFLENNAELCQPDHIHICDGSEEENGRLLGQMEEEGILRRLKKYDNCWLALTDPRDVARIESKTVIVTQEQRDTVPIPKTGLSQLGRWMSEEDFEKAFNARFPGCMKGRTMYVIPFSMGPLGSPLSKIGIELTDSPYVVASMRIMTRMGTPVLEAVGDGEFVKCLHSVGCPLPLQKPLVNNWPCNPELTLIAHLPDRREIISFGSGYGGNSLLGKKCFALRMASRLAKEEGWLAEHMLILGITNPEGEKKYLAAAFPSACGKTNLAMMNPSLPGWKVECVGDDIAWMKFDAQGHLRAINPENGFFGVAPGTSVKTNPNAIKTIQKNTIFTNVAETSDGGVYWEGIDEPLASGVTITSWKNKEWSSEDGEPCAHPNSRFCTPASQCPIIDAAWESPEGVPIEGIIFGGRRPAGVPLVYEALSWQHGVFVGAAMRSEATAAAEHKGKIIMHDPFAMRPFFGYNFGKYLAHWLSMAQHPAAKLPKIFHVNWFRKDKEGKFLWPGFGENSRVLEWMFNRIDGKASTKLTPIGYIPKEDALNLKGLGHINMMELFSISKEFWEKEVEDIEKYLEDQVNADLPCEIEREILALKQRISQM
Experiment: PEPCK enzyme assay (coupled to pyruvate kinase / lactate dehydrogenase, absorbance at 340 nm)
Type: biochemical
Details: in vitro PEPCK enzymatic assay; GTP at 3 fold and OAA at 10 fold Km; final DMSO 10%; room temperature, twenty minutes
Description: E. coli cells expressing GST-PEPCK were suspended in 5 volumes of lysis buffer (50 mM Tris-hydroxymethyl aminomethyl (TRIS), 150 mM sodium chloride (NaCl), 10 mM ethylene-diametetraacetic acid (EDTA), 5 mM dithiothreitol(DTT), 1% Nonidet P-40, pH 7.4) in the presence of protease inhibitors, incubated with lysozyme at 200 micrograms/ml for 30 min. at room temperature, and sonicated 4×30 seconds at 4 degrees C. After centrifugation at 12,000×g for 20 min. to remove insoluble material, the supernatant was loaded onto glutathione Sepharose (Pharmacia), washed with lysis buffer followed by washing with lysis buffer in the absence of NP-40. GST-PEPCK was eluted with the same buffer containing 20 mM glutathione. The eluted protein was concentrated and dialyzed against 25 mM Hepes(N-[2-hydroxyethyl]piperazine-N′[2-ethanesulfonic acid), 150 mM NaCl, 2.5 mM EDTA, 5 mM DTT, 30% glycerol, pH 7.4, and stored at −20° C.
The inhibitory effect of the compounds of the present invention on PEPCK enzymatic activity was determined using recombinant human cytosolic PEPCK, expressed and purified from E.coli as a GST-fusion. Guanosine triphosphate (GTP) and manganese dependent PEPCK enzyme activity catalyzed the decarboxylation of oxalacetate leading to the formation of guanosine diphosphate (GDP) and phosphoenol pyruvate (PEP). This reaction is coupled to pyruvate kinase and lactate dehydrogenase catalyzed reactions and the overall reaction rate determined by measuring the change in absorbance at 340 nm (Chang, H. C. and Lane M. D., J. Biol. Chem. 241:2413–2420, 1966). The following modifications were made to the protocol: 2.5 μg of recombinant, human cytosolic glutathione-S-transferase (GST)-PEPCK was added to a reaction mixture at room temperature which contained 0.3 mM GTP, 0.3 mM oxaloacetate (OAA), 3 mM magnesium chloride (MgCl2), 0.075 mM manganese chloride (MnCl2), 30 mM potassium phosphates (KPO4), pH 7.6, 1 mM dithiothreitol (DTT), 0.2 mM adenosine diphosphate (ADP), 1 mM nicotinamide adenine dinucleotide, reduced form (NADH), 0.9 Units/ml each of pyruvate kinase and lactate dehydrogenase and 1 mg/ml bovine serum albumin (BSA). Test compounds were added such that final concentration of DMSO was 10%. Reactions were run for twenty minutes.
Km values for GTP and OAA were determined according to Michelis-Menton conditions as described in Comish-Bowden (Fundamentals of Enzyme Kinetics, 1995) in essentially the coupled assay conditions described above. […] Test compounds were added to reactions over a range of concentrations and IC50's were calculated from plots of inhibitor concentration versus enzyme rate. This method of determination of IC50 values is equally applicable to calculations based on PEPCK cellular assay.

In order of falling IC50:
1. CCCCn1c(=O)n(Cc2ccccc2)c(=O)c2[nH]c(Cc3ccc(NS(C)(=O)=O)cc3)nc21 [Example 24, N-[4-(1-Benzyl-3-butyl-2,6-dioxo-2,3,6,7-tetrahydro-1H-purin-8-ylmethyl)-phenyl]-methanesulfonamide]  7550 nM
2. CCCCn1c(=O)n(Cc2ccccc2F)c(=O)c2[nH]c(Cc3ccc(S(=O)(=O)Nc4c(C)nn(C)c4C)cc3)nc21 [Example 32, 4-[3-Butyl-1-(2-fluoro-benzyl)-2,6-dioxo-2,3,6,7-tetrahydro-1H-purin-8-ylmethyl]-N-(1,3,5-trimethyl-1H-pyrazol-4-yl)-benzenesulfonamide]  6450 nM
3. CCCCn1c(=O)n(Cc2ccccc2F)c(=O)c2[nH]c(Cc3ccc(S(=O)(=O)Nc4ncccn4)cc3)nc21 [Example 31, 4-[3-Butyl-1-(2-fluoro-benzyl)-2,6-dioxo-2,3,6,7-tetrahydro-1H-purin-8-ylmethyl]-N-pyrimidin-2-yl-benzenesulfonamide]  6350 nM
4. CCCCn1c(=O)n(Cc2ccccc2F)c(=O)c2[nH]c(Cc3ccc(S(=O)(=O)Nc4cccnc4)cc3)nc21 [Example 30, 4-[3-Butyl-1-(2-fluoro-benzyl)-2,6-dioxo-2,3,6,7-tetrahydro-1H-purin-8-ylmethyl]-N-pyridin-3-yl-benzenesulfonamide]  4100 nM
5. CCCCn1c(=O)n(Cc2ccccc2F)c(=O)c2[nH]c(Cc3ccc(S(=O)(=O)Nc4ccccn4)cc3)nc21 [Example 28, 4-[3-Butyl-1-(2-fluoro-benzyl)-2,6-dioxo-2,3,6,7-tetrahydro-1H-purin-8-ylmethyl]-N-pyridin-2-yl-benzenesulfonamide]  2400 nM
6. CCCCn1c(=O)n(Cc2ccccc2F)c(=O)c2[nH]c(Cc3ccc(S(=O)(=O)Nc4ccncc4)cc3)nc21 [Example 29, 4-[3-Butyl-1-(2-fluoro-benzyl)-2,6-dioxo-2,3,6,7-tetrahydro-1H-purin-8-ylmethyl]-N-pyridin-4-yl-benzenesulfonamide]  2400 nM
7. Cc1nn(C)cc1S(=O)(=O)N(C)c1ccc(Cc2nc3c([nH]2)c(=O)n(Cc2ccccc2F)c(=O)n3CC2CC2)cc1 [Example 27, 1,3-Dimethyl-1H-pyrazole-4-sulfonic acid {4-[3-cyclopropylmethyl-1-(2-fluoro-benzyl)-2,6-dioxo-2,3,6,7-tetrahydro-1H-purin-8-ylmethyl]-phenyl}-methyl-amide]  1450 nM
8. Cc1nn(C)c(Cl)c1S(=O)(=O)Nc1ccc(Cc2nc3c([nH]2)c(=O)n(Cc2ccccc2F)c(=O)n3CC2CCC2)nc1 [Example 26, 5-Chloro-1,3-dimethyl-1H-pyrazole-4-sulfonic acid {6-[3-cyclobutylmethyl-1-(2-fluoro-benzyl)-2,6-dioxo-2,3,6,7-tetrahydro-1H-purin-8-ylmethyl]-pyridin-3-yl}-amide]  980 nM
9. CCCCn1c(=O)n(Cc2ccccc2F)c(=O)c2[nH]c(Cc3ccc(NS(=O)(=O)c4c(C)nn(C)c4Cl)cn3)nc21 [Example 25, 5-Chloro-1,3-dimethyl-1H-pyrazole-4-sulfonic acid {6-[3-butyl-1-(2-fluoro-benzyl)-2,6-dioxo-2,3,6,7-tetrahydro-1H-purin-8-ylmethyl]-pyridin-3-yl}-amide]  880 nM
